# Values quoted from earlier work, collected in PubChem BioAssay AID1259409 (Chemical Carcinogenesis Research Information System (CCRIS), 2018).
# Test system: rodent chemically induced tumor inhibition, incidence and multiplicity
# Assay: CCRIS tumor inhibitor studies
# Conditions: Dose [Inhibitor]: 0, Route [Inhibitor]: ORAL, Promoter: NONE USED
smiles,measurement,setting,value
CC1=C(/C=C/C(C)=C/C=C/C(C)=C/C=C/C=C(C)/C=C/C=C(C)/C=C/C2=C(C)CCCC2(C)C)C(C)(C)CCC1,"tumour outcome (control, treated, inhibition, significance)","Carcinogen: N-ETHYL-N'-NITRO-N-NITROSOGUANIDINE, 4245-77-6, 0.005% PALM CAROTENE IN DRINKING WATER FOR 16 WK BEGINNING POST CARCINOGEN TREATMENT (STUDY DURATION: 20 WK), Species: MOUSE, Strain/Sex: C57BL/MALE, Target Tissue: Type of Lesion: DUODENUM: TUMOR, Dose [Carcinogen]: 100 MG/L IN DRINKING WATER FOR 4 WK","18/27 (67%), 8/16 (50%), 25%, not significant"
same,"tumour outcome (control, treated, inhibition, significance)","Carcinogen: N-ETHYL-N'-NITRO-N-NITROSOGUANIDINE, 4245-77-6, 0.05% PALM CAROTENE IN DRINKING WATER FOR 16 WK BEGINNING POST CARCINOGEN TREATMENT (STUDY DURATION: 20 WK), Species: MOUSE, Strain/Sex: C57BL/MALE, Target Tissue: Type of Lesion: DUODENUM: TUMOR, Dose [Carcinogen]: 100 MG/L IN DRINKING WATER FOR 4 WK","18/27 (67%), 11/28 (39%), 42%, p<0.05"
same,"tumour outcome (control, treated, inhibition, significance)","Carcinogen: N-METHYL-N'-NITRO-N-NITROSOGUANIDINE, 70-25-7, 0.4% IN DIET FOR 2 WK PRIOR TO FIRST CARCINOGEN DOSE FOLLOWED BY 0, 0.2% IN DIET FOR 25 WK (STUDY DURATION: 27 WK), 0.4% IN DIET FOR 2 WK PRIOR TO FIRST CARCINOGEN DOSE FOLLOWED BY 0, 0.2% IN DIET FOR 25 WK (STUDY DURATION: 27 WK), Species: RAT, Strain/Sex: WISTAR/MALE, Target Tissue: Type of Lesion: COLON: ADENOCARCINOMA, Dose [Carcinogen]: 0.15 ML OF A 13.4 MG/ML SOLUTION IN DISTILLED WATER 2/WK FOR 3 WK","34/36 (94%), 34/35 (97%), -3%, not calculated"
same,"tumour outcome (control, treated, inhibition, significance)","Carcinogen: N-METHYL-N'-NITRO-N-NITROSOGUANIDINE, 70-25-7, 0.4% IN DIET FOR 2 WK PRIOR TO FIRST CARCINOGEN DOSE FOLLOWED BY 0, 0.2% IN DIET FOR 25 WK (STUDY DURATION: 27 WK), 0.4% IN DIET FOR 2 WK PRIOR TO FIRST CARCINOGEN DOSE FOLLOWED BY 0, 0.2% IN DIET FOR 25 WK (STUDY DURATION: 27 WK), Species: RAT, Strain/Sex: WISTAR/MALE, Target Tissue: Type of Lesion: COLON: ADENOMA, Dose [Carcinogen]: 0.15 ML OF A 13.4 MG/ML SOLUTION IN DISTILLED WATER 2/WK FOR 3 WK","17/36 (47%), 24/35 (69%), -47%, not calculated"
same,"tumour outcome (control, treated, inhibition, significance)","Carcinogen: N-METHYL-N'-NITRO-N-NITROSOGUANIDINE, 70-25-7, 0.4% IN DIET FOR 2 WK PRIOR TO FIRST CARCINOGEN DOSE FOLLOWED BY 0, 0.2% IN DIET FOR 52 WK (STUDY DURATION: 54 WK), 0.4% IN DIET FOR 2 WK PRIOR TO FIRST CARCINOGEN DOSE FOLLOWED BY 0, 0.2% IN DIET FOR 52 WK (STUDY DURATION: 54 WK), Species: RAT, Strain/Sex: WISTAR/MALE, Target Tissue: Type of Lesion: GLANDULAR STOMACH: ADENOCARCINOMA, Dose [Carcinogen]: 80 UG/ML IN DRINKING WATER FOR 52 WK","7/36 (19%), 4/35 (11%), 42%, not calculated"
same,outcome,"Carcinogen: N-METHYL-N'-NITRO-N-NITROSOGUANIDINE, 70-25-7, 0.4% IN DIET FOR 2 WK PRIOR TO FIRST CARCINOGEN DOSE FOLLOWED BY 0, 0.2% IN DIET FOR 52 WK (STUDY DURATION: 54 WK), 0.4% IN DIET FOR 2 WK PRIOR TO FIRST CARCINOGEN DOSE FOLLOWED BY 0, 0.2% IN DIET FOR 52 WK (STUDY DURATION: 54 WK), Species: RAT, Strain/Sex: WISTAR/MALE, Target Tissue: Type of Lesion: GLANDULAR STOMACH: LEIOMYOSARCOMA, Dose [Carcinogen]: 80 UG/ML IN DRINKING WATER FOR 52 WK","0/36 (0%), 2/35 (6%), -600%, not calculated"
same,"tumour outcome (control, treated, inhibition, significance)","Carcinogen: N-METHYL-N'-NITRO-N-NITROSOGUANIDINE, 70-25-7, 0.4% IN DIET FOR 2 WK PRIOR TO FIRST CARCINOGEN DOSE FOLLOWED BY 0, 0.2% IN DIET FOR 52 WK (STUDY DURATION: 54 WK), 0.4% IN DIET FOR 2 WK PRIOR TO FIRST CARCINOGEN DOSE FOLLOWED BY 0, 0.2% IN DIET FOR 52 WK (STUDY DURATION: 54 WK), Species: RAT, Strain/Sex: WISTAR/MALE, Target Tissue: Type of Lesion: SMALL INTESTINE: ADENOCARCINOMA, Dose [Carcinogen]: 80 UG/ML IN DRINKING WATER FOR 52 WK","10/36 (28%), 17/35 (49%), -75%, p= 0.12"
same,"tumour outcome (control, treated, inhibition, significance)","Carcinogen: N-METHYL-N'-NITRO-N-NITROSOGUANIDINE, 70-25-7, 0.4% IN DIET FOR 2 WK PRIOR TO FIRST CARCINOGEN DOSE FOLLOWED BY 0, 0.2% IN DIET FOR 52 WK (STUDY DURATION: 54 WK), 0.4% IN DIET FOR 2 WK PRIOR TO FIRST CARCINOGEN DOSE FOLLOWED BY 0, 0.2% IN DIET FOR 52 WK (STUDY DURATION: 54 WK), Species: RAT, Strain/Sex: WISTAR/MALE, Target Tissue: Type of Lesion: SMALL INTESTINE: ADENOMA, Dose [Carcinogen]: 80 UG/ML IN DRINKING WATER FOR 52 WK","1/36 (3%), 0/35 (0%), 100%, not calculated"
same,"tumour outcome (control, treated, inhibition, significance)","Carcinogen: N-METHYL-N'-NITRO-N-NITROSOGUANIDINE, 70-25-7, 0.4% IN DIET FOR 2 WK PRIOR TO FIRST CARCINOGEN DOSE FOLLOWED BY 0, 0.2% IN DIET FOR 52 WK (STUDY DURATION: 54 WK), 0.4% IN DIET FOR 2 WK PRIOR TO FIRST CARCINOGEN DOSE FOLLOWED BY 0, 0.2% IN DIET FOR 52 WK (STUDY DURATION: 54 WK), Species: RAT, Strain/Sex: WISTAR/MALE, Target Tissue: Type of Lesion: SMALL INTESTINE: ANGIOSARCOMA, Dose [Carcinogen]: 80 UG/ML IN DRINKING WATER FOR 52 WK","3/36 (8%), 6/35 (17%), -113%, not calculated"
